Source: US20260042762A1 (Kymera Therapeutics, Inc., priority 2018, published 2026)
Structures can show the parent of a compound that is named as a salt.

molecular target: T1, MerTK (Homo sapiens, UniProt Q12866); assay: MerTk degradation in Jurkat cells (Western blot); assay type: cell-based; settings: Jurkat, 4 h, 0.001-1 μM, 4 hour-incubation at 37° C., read-out: Jurkat Max % MerTK Degradation
T1 construct: endogenous in cells; host or cells: Jurkat cells
T1 sequence (Q12866 21-999): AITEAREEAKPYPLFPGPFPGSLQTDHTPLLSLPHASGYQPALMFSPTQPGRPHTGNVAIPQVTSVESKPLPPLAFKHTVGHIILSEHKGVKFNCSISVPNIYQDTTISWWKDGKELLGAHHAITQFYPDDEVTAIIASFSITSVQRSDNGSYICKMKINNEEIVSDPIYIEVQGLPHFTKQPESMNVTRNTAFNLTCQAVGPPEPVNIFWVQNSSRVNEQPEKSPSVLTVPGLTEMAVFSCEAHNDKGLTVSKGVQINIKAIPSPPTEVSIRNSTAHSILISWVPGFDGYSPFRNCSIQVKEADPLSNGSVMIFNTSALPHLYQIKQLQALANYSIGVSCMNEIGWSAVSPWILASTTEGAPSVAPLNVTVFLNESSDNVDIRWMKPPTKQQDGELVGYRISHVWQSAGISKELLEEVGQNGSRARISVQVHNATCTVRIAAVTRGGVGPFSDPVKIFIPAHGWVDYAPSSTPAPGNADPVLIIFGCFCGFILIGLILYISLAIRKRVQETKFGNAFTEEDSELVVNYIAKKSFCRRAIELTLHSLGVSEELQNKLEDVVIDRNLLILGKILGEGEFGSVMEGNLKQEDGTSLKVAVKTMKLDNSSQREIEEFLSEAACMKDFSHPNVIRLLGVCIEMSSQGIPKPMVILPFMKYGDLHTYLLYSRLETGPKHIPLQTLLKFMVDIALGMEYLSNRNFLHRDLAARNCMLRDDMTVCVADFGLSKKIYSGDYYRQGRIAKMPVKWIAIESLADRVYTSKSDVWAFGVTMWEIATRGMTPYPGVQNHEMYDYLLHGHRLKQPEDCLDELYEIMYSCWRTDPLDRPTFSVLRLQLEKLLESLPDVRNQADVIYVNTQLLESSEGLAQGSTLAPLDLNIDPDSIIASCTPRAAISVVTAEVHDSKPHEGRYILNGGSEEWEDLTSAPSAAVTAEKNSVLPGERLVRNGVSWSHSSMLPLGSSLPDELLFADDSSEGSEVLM
Summary of the method: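 Jurkat cells treated 4 h at 37 °C with compound at 0.001-1 μM final. RIPA lysates quantified by BCA, then MerTK probed by Western blot against actin loading control with IR-dye secondaries and Odyssey imaging.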

Dmax [%]	SMILES
> 50	Cn1c(=O)n(C2CCC(=O)NC2=O)c2ccc(CN3CCC(OCCN4CCN(Cc5ccc(-c6cn([C@H]7CC[C@H](O)CC7)c7nc(NCCC(F)(F)F)ncc67)cc5)CC4)C3)cc21 (stereo partly drawn) [I-98, 3-(3-methyl-2-oxo-5-[[3-(2-[4-[(4-[7-[trans-4-hydroxycyclohexy1]-2-[(3,3,3-trifluoropropyl)amino]-7H-pyrrolo[2,3-d]pyrimidin-5-y1]phenyl)methyl]piperazin-1-yl]ethoxy)pyrrolidin-1-y1]methyl]-2,3-dihydro-1H-1,3-benzodiazol-1-yl)piperidine-2,6-dione; formic acid]
> 50	O=C1CC[C@H](n2c3ccc(NCCOCCOCCNCc4ccc(-c5cn([C@H]6CC[C@H](O)CC6)c6nc(NCCC(F)(F)F)ncc56)cc4)cc3c3cccnc32)C(=O)N1 [I-99, 3-[6-[11-(4-[7-[trans-4-hydroxycyclohexyl]-2-[(3,3,3-trifluoropropyl)amino]-7H-pyrrolo[2,3-d]pyrimidin-5-yl]phenyl)-4,7-dioxa-1,10-diazaundecan-1-y1]-9H-pyrido[2,3-b]indol-9-yl]piperidine-2,6-dione; trihydrochloride]
> 50	Cn1c(=O)n([C@H]2CCC(=O)NC2=O)c2ccc(CCCOCCCN3CCN(Cc4ccc(-c5cn([C@H]6CC[C@H](O)CC6)c6nc(NCC(F)F)ncc56)cc4)CC3)cc21 [I-100, 3-[5-[3-(3-[4-[(4-[2-[(2,2-difluoroethyl)amino]-7-[trans-4-hydroxycyclohexyl]-7H-pyrrolo[2,3-d]pyrimidin-5-yl]phenyl)methyl]piperazin-1-yl]propoxy)propyl]-3-methyl-2-oxo-2,3-dihydro-1H-1,3-benzodiazol-1-yl]piperidine-2,6-dione; formic acid]
> 50	C[C@H](c1ccc(-c2cn([C@H]3CC[C@H](O)CC3)c3nc(NCCC(F)(F)F)ncc23)cc1)N1CCN(CCCOCCCc2ccc3c(c2)n(C)c(=O)n3C2CCC(=O)NC2=O)CC1 (some centres unmarked) [I-101]
> 50	C[C@@H](c1ccc(-c2cn([C@H]3CC[C@H](O)CC3)c3nc(NCCC(F)(F)F)ncc23)cc1)N1CCN(CCCOCCCc2ccc3c(c2)n(C)c(=O)n3C2CCC(=O)NC2=O)CC1 (stereo partly drawn) [I-102, 3-[3-methyl-2-oxo-5-[3-(3-[4-[(1S)-1-(4-[7-[trans-4-hydroxycyclohexy1]-2-[(3,3,3-trifluoropropyl)amino]-7H-pyrrolo[2,3-d]pyrimidin-5-yl]phenyl)ethyl]piperazin-1-yl]propoxy)propyl]-2,3-dihydro-1H-1,3-benzodiazol-1-yl]piperidine-2,6-dione; formic acid]
> 50	CCCCNc1ncc2c(-c3ccc([C@@H](C)N4CCN(CCCOCCCc5ccc6c(c5)n(C)c(=O)n6C5CCC(=O)NC5=O)CC4)cc3)cn([C@H]3CC[C@H](O)CC3)c2n1 (stereo partly drawn) [I-103, 3-[5-[3-(3-[4-[(1R)-1-[4-[2-(butylamino)-7-[trans-4-hydroxycyclohexyl]-7H-pyrrolo[2,3-d]pyrimidin-5-yl]phenyl]ethyl]piperazin-1-yl]propoxy)propyl]-3-methyl-2-oxo-2,3-dihydro-1H-1,3-benzodiazol-1-yl]piperidine-2,6-dione]
> 50	CCCCNc1ncc2c(-c3ccc([C@H](C)N4CCN(CCCOCCCc5ccc6c(c5)n(C)c(=O)n6C5CCC(=O)NC5=O)CC4)cc3)cn([C@H]3CC[C@H](O)CC3)c2n1 (stereo partly drawn) [I-104, 3-[5-[3-(3-[4-[(1S)-1-[4-[2-(butylamino)-7-[trans-4-hydroxycyclohexyl]-7H-pyrrolo[2,3-d]pyrimidin-5-yl]phenyl]ethyl]piperazin-1-yl]propoxy)propyl]-3-methyl-2-oxo-2,3-dihydro-1H-1,3-benzodiazol-1-y1]piperidine-2,6-dione]
20 to 50	CN1C(=O)CC[C@H](n2c(=O)n(C)c3cc(CCCOCCOCCN4CCN(Cc5ccc(-c6cn([C@H]7CC[C@H](O)CC7)c7nc(NCCC(F)(F)F)ncc67)cc5)CC4)ccc32)C1=O [I-105, 1-methyl-3-(3-methyl-2-oxo-5-[3-[2-(2-[4-[(4-[7-[trans-4-hydroxycyclohexyl]-2-[(3,3,3-trifluoropropyl)amino]-7H-pyrrolo[2,3-d]pyrimidin-5-yl]phenyl)methyl]piperazin-1-yl]ethoxy)ethoxy]propyl]-2,3-dihydro-1H-1,3-benzodiazol-1-yl)piperidine-2,6-dione]
> 50	C[C@H]1CN(Cc2ccc(-c3cn([C@H]4CC[C@H](O)CC4)c4nc(NCCC(F)(F)F)ncc34)cc2)CCN1CCCOCCCc1ccc2c(c1)n(C)c(=O)n2C1CCC(=O)NC1=O (stereo partly drawn) [I-106, 3-[3-methyl-5-(3-[3-[(2S)-2-methyl-4-[(4-[7-[trans-4-hydroxycyclohexy1]-2-[(3,3,3-trifluoropropyl)amino]-7H-pyrrolo[2,3-d]pyrimidin-5-yl]phenyl)methyl]piperazin-1-yl]propoxy]propyl)-2-oxo-2,3-dihydro-1H-1,3-benzodiazol-1-yl]piperidine-2,6-dione; formic acid]
> 50	Cn1c(=O)n([C@H]2CCC(=O)NC2=O)c2ccc(CCCOCCCN3CCN(Cc4ccc(-c5cn([C@H]6CC[C@H](O)CC6)c6nc(NC7CC7)ncc56)cc4)CC3)cc21 [I-108, 3-[5-(3-[3-[4-([4-[2-(cyclopropylamino)-7-[trans-4-hydroxycyclohexyl]-7H-pyrrolo[2,3-d]pyrimidin-5-yl]phenyl]methyl)piperazin-1-yl]propoxy]propyl)-3-methyl-2-oxo-2,3-dihydro-1H-1,3-benzodiazol-1-yl]piperidine-2,6-dione; bis(formic acid)]
< 20	Cn1c(=O)n([C@H]2CCC(=O)NC2=O)c2ccc(CN3CC(OCCN4CCN(Cc5ccc(-c6cn([C@H]7CC[C@H](O)CC7)c7nc(NCCC(F)(F)F)ncc67)cc5)CC4)C3)cc21 [I-109, 3-(3-methyl-2-oxo-5-[[3-(2-[4-[(4-[7-[trans-4-hydroxycyclohexyl]-2-[(3,3,3-trifluoropropyl)amino]-7H-pyrrolo[2,3-d]pyrimidin-5-y1]phenyl)methyl]piperazin-1-yl]ethoxy)azetidin-1-yl]methyl]-2,3-dihydro-1H-1,3-benzodiazol-1-y1)piperidine-2,6-dione]
> 50	C[C@@H](CC(F)(F)F)Nc1ncc2c(-c3ccc(CN4CCN(CCCOCCCc5ccc6c(c5)n(C)c(=O)n6C5CCC(=O)NC5=O)CC4)cc3)cn([C@H]3CC[C@H](O)CC3)c2n1 (stereo partly drawn) [I-110, 3-[3-methyl-2-oxo-5-[3-(3-[4-[(4-[7-[(1r,4r)-4-hydroxycyclohexyl]-2-[[(2S)-4,4,4-trifluorobutan-2-yl]amino]-7H-pyrrolo[2,3-d]pyrimidin-5-yl]phenyl)methyl]piperazin-1-yl]propoxy)propyl]-2,3-dihydro-1H-1,3-benzodiazol-1-y1]piperidine-2,6-dione]
> 50	C[C@H](CC(F)(F)F)Nc1ncc2c(-c3ccc(CN4CCN(CCCOCCCc5ccc6c(c5)n(C)c(=O)n6C5CCC(=O)NC5=O)CC4)cc3)cn([C@H]3CC[C@H](O)CC3)c2n1 (some centres unmarked) [I-111]
< 20	Cn1c(=O)n([C@H]2CCC(=O)NC2=O)c2ccc(CCCN3CC(CCN4CCN(Cc5ccc(-c6cn([C@H]7CC[C@H](O)CC7)c7nc(NCCC(F)(F)F)ncc67)cc5)CC4)C3)cc21 [I-112, 3-(3-methyl-2-oxo-5-[3-[3-(2-[4-[(4-[7-[trans-4-hydroxycyclohexy1]-2-[(3,3,3-trifluoropropyl)amino]-7H-pyrrolo[2,3-d]pyrimidin-5-yl]phenyl)methyl]piperazin-1-yl]ethyl)azetidin-1-yl]propyl]-2,3-dihydro-1H-1,3-benzodiazol-1-y1)piperidine-2,6-dione]
